Among the data in US9156796B2, “Benzoimidazole-carboxylic acid amide derivatives as APJ receptor modulators” (SANOFI, priority 2013, dated 2015) are EC50 values, retold here.

Like-named read-outs stand apart in the source and are kept apart here.

For this test, the target named is T1, human apelin receptor (Homo sapiens, UniProt P35414).
T1 construct: expressed in transfected cells
T1 sequence (P35414 1-380): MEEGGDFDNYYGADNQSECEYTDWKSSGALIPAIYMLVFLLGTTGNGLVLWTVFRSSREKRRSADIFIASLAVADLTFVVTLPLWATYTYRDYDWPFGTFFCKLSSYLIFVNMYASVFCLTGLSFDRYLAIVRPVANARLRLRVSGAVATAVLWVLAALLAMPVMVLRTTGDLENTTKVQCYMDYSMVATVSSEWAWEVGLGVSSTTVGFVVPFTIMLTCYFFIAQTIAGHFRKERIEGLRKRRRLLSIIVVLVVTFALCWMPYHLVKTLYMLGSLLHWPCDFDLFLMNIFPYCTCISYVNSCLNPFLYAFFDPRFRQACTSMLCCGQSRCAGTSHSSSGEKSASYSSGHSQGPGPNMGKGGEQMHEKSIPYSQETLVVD
The experiment in a line: Determination of agonism on the human apelin receptor by a calcium fluorescence assay (FLIPR). Type of test: cell-based. The following applies: HEK293 cells stably transfected with human apelin receptor and Giaq protein, Fluo-4 calcium fluorescence. The essentials:
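HEK293 cells stably co-expressing human apelin receptor and promiscuous Giaq, loaded 1 h at 37 °C with Fluo-4 (4 μM) in probenecid-containing Hepes buffer, pH 7.4. Compounds, at least 7 concentrations in triplicate, added in FLIPR Tetra; peak calcium fluorescence normalized to 1 μM apelin-13 as 100% to derive EC50.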

`CC[C@H](C)[C@@H](CC(=O)O)NC(=O)c1ccc2c(c1)nc(Cc1cccs1)n2[C@@H]1CCCC[C@H]1C` [Example 53, (3R,4S)-4-Methyl-3-{[1-((1R,2R)-2-methyl-cyclohexyl)-2-thiophen-2-ylmethyl-1H-benzoimidazole-5-carbonyl]-amino}-hexanoic acid]: the 50% effective concentration (EC50) (read-out: EC50 (APJ agonism)) worked out at 48 nM. On the same count and under the same terms, with `CC(C)C[C@H](NC(=O)c1ccc2c(c1)nc(Cc1cccs1)n2C1CCCCC1C)C(=O)O` (single isomer, unassigned) [Example 414] the figure was 664 nM. On the same count and under the same terms, with `CCC(CC)n1c(Cc2cccs2)nc2cc(C(=O)N[C@@H](CC(C)C)C(=O)NCC3CCCN(Cc4ccccc4)C3)ccc21` (stereo partly drawn) [Example 286, 1-(1-Ethyl-propyl)-2-thiophen-2-ylmethyl-1H-benzoimidazole-5-carboxylic acid {(S)-1-[(1-benzyl-piperidin-3-ylmethyl)-carbamoyl]-3-methyl-butyl}-amide] the figure was 1100 nM. Same read-out and setting: with `CCC(CC)n1c(Cc2cccs2)nc2cc(C(=O)N[C@@H](CC(C)C)C(=O)NCC(C)(C)OC)ccc21` [Example 394, 1-(1-Ethyl-propyl)-2-thiophen-2-ylmethyl-1H-benzoimidazole-5-carboxylic acid [(S)-1-(2-methoxy-2-methyl-propylcarbamoyl)-3-methyl-butyl]-amide] the figure was 2330 nM; with `CCC(CC)n1c(CC2CCCC2)nc2cc(C(=O)N[C@H](CO)C(C)C)ccc21` [Example 187, 2-Cyclopentylmethyl-1-(1-ethyl-propyl)-1H-benzoimidazole-5-carboxylic acid ((S)-1-hydroxymethyl-2-methyl-propyl)-amide], 29000 nM.

For `CCC(CC)n1c(Cc2cccs2)nc2cc(C(=O)N[C@@H](CC(C)C)C(=O)NCC3CCCN4CCCCC34)ccc21` (stereo partly drawn) [Example 275, 1-(1-Ethyl-propyl)-2-thiophen-2-ylmethyl-1H-benzoimidazole-5-carboxylic acid {(S)-3-methyl-1-[(octahydro-quinolizin-1-ylmethyl)-carbamoyl]-butyl}-amide], the EC50 (read-out: EC50 (APJ agonism)) turned out to be 242 nM. Same read-out and setting: to `CCC(CC)n1c(Cc2cccs2)nc2cc(C(=O)N[C@@H](CC3CCCCC3)C(=O)O)ccc21` [Example 125, (S)-3-Cyclohexyl-2-{[1-(1-ethyl-propyl)-2-thiophen-2-ylmethyl-1H-benzoimidazole-5-carbonyl]-amino}-propionic acid] belongs 78 nM; to `CCC(CC)n1c(Cc2cccs2)nc2cc(C(=O)N[C@@H](CC(C)C)C(=O)NCC3CCN(C(C)c4ccccc4)C3)ccc21` (stereo partly drawn) [Example 353, 1-(1-Ethyl-propyl)-2-thiophen-2-ylmethyl-1H-benzoimidazole-5-carboxylic acid ((S)-3-methyl-1-{[1-(1-phenyl-ethyl)-pyrrolidin-3-ylmethyl]-carbamoyl}-butyl)-amide], 787 nM; to `CCC(CC)n1c(Cc2cccs2)nc2cc(C(=O)N[C@@H](CC(C)C)C(=O)NCCC(F)(F)F)ccc21` [Example 251, 1-(-Ethyl-propyl)-2-thiophen-2-ylmethyl-1H-benzoimidazole-5-carboxylic acid [(S)-3-methyl-1-(3,3,3-trifluoro-propylcarbamoyl)-butyl]-amide], 2560 nM. Same read-out and setting: with `CCC(CC)n1c(Cc2cccs2)nc2cc(C(=O)N[C@H](CO)C3CCCCC3)ccc21` [Example 204, 1-(1-Ethyl-propyl)-2-thiophen-2-ylmethyl-1H-benzoimidazole-5-carboxylic acid ((S)-1-cyclohexyl-2-hydroxy-ethyl)-amide] the figure was 1990 nM. As for `CCC(CC)n1c(Cc2cccs2)nc2cc(C(=O)N[C@H](CO)C(C)(C)C)ccc21` [Example 192, 1-(1-Ethyl-propyl)-2-thiophen-2-ylmethyl-1H-benzoimidazole-5-carboxylic acid ((S)-1-hydroxymethyl-2,2-dimethyl-propyl)-amide], the EC50 (EC50 (APJ agonism)) was 14000 nM. In the case of `CCC(CC)n1c(Cc2cccs2)nc2cc(C(=O)N[C@@H](CC(C)C)C(=O)NC3CC4CCCC(C3)N4C)ccc21` (stereo partly drawn) [Example 292, 1-(1-Ethyl-propyl)-2-thiophen-2-ylmethyl-1H-benzoimidazole-5-carboxylic acid [(S)-3-methyl-1-(9-methyl-9-aza-bicyclo[3.3.1]non-3-ylcarbamoyl)-butyl]-amide], the EC50 (read-out: EC50 (APJ agonism)) was 1220 nM. For `CCC(CC)n1c(Cc2cccs2)nc2cc(C(=O)N[C@@H](CC(C)C)C(=O)NCCN3CCCC3)ccc21` [Example 230, 1-(1-Ethyl-propyl)-2-thiophen-2-ylmethyl-1H-benzoimidazole-5-carboxylic acid [(S)-3-methyl-1-(2-pyrrolidin-1-yl-ethylcarbamoyl)-butyl]-amide], the EC50 (read-out: EC50 (APJ agonism)) came out at 288 nM. `CCC(CC)n1c(Cc2cccs2)nc2cc(C(=O)N[C@@H](CC(C)C)C(=O)N3CC4CC3CN4CC)ccc21` (stereo partly drawn) [Example 347, 1-(1-Ethyl-propyl)-2-thiophen-2-ylmethyl-1H-benzoimidazole-5-carboxylic acid [(S)-1-(5-ethyl-2,5-diaza-bicyclo[2.2.1]heptane-2-carbonyl)-3-methyl-butyl]-amide]: the concentration giving a half-maximal response (EC50) (read-out: EC50 (APJ agonism)) turned out to be 809 nM. Turning to `CC[C@H](C)[C@@H](CCC(=O)O)NC(=O)c1ccc2c(c1)nc(Cc1cccs1)n2[C@@H]1CCCC[C@H]1C` [Example 72, (4R,5S)-5-Methyl-4-{[1-((1R,2R)-2-methyl-cyclohexyl)-2-thiophen-2-ylmethyl-1H-benzoimidazole-5-carbonyl]-amino}-heptanoic acid], for the setting “read-out: EC50 (APJ agonism)”, the half-maximal effective concentration (EC50) is 47 nM. Still for that read-out and setting: with `CCC(CC)n1c(Cc2cccs2)nc2cc(C(=O)N[C@@H](CC(C)C)C(=O)N3CCC(O)C3)ccc21` (stereo partly drawn) [Example 407, 1-(1-Ethyl-propyl)-2-thiophen-2-ylmethyl-1H-benzoimidazole-5-carboxylic acid [(S)-1-(3-hydroxy-pyrrolidine-1-carbonyl)-3-methyl-butyl]-amide] the figure was 708 nM.

`CCC(C)n1c(Cc2ccsc2)nc2cc(C(=O)N[C@@H](CC(C)C)C(=O)O)ccc21` (stereo partly drawn) [Example 142, (S)-2-[(1-sec-Butyl-2-thiophen-3-ylmethyl-1H-benzoimidazole-5-carbonyl)-amino]-4-methyl-pentanoic acid]: the EC50 (read-out: EC50 (APJ agonism)) worked out at 12000 nM.

With `CC(C)C[C@H](NC(=O)c1ccc2c(c1)nc(Cc1cccs1)n2C1CCCC1C)C(=O)O` (single isomer, unassigned) [Example 429], the EC50 (read-out: EC50 (APJ agonism)) is 891 nM.

With `CCC(CC)n1c(Cc2cccs2)nc2cc(C(=O)N[C@@H](CC(C)C)C(=O)NCCCN3CCCC(C)C3)ccc21` (stereo partly drawn) [Example 339, 1-(1-Ethyl-propyl)-2-thiophen-2-ylmethyl-1H-benzoimidazole-5-carboxylic acid {(S)-3-methyl-1-[3-(3-methyl-piperidin-1-yl)-propylcarbamoyl]-butyl}-amide], the 50% effective concentration (EC50) (read-out: EC50 (APJ agonism)) stood at 444 nM.

`CCC(CC)n1c(Cc2cccs2)nc2cc(C(=O)N[C@@H](CC(C)C)C(=O)NCC(=O)O)ccc21` [Example 408, ((S)-2-{[1-(1-Ethyl-propyl)-2-thiophen-2-ylmethyl-1H-benzoimidazole-5-carbonyl]-amino}-4-methyl-pentanoylamino)-acetic acid]: the EC50 (read-out: EC50 (APJ agonism)) was determined as 447 nM. Still for that read-out and setting: to `CCCC1CCN(CCCNC(=O)[C@H](CC(C)C)NC(=O)c2ccc3c(c2)nc(Cc2cccs2)n3C(CC)CC)CC1` [Example 354, 1-(1-Ethyl-propyl)-2-thiophen-2-ylmethyl-1H-benzoimidazole-5-carboxylic acid {(S)-3-methyl-1-[3-(4-propyl-piperidin-1-yl)-propylcarbamoyl]-butyl}-amide] belongs 998 nM; to `CCC(CC)n1c(Cc2cccs2)nc2cc(C(=O)N[C@@H](CC(C)C)C(=O)NCCCN3CCC(Cc4ccccc4)CC3)ccc21` [Example 346, 1-(1-Ethyl-propyl)-2-thiophen-2-ylmethyl-1H-benzoimidazole-5-carboxylic acid {(S)-1-[3-(4-benzyl-piperidin-1-yl)-propylcarbamoyl]-3-methyl-butyl}-amide], 1320 nM. Take `CCCC(NC(=O)c1ccc2c(c1)nc(Cc1cccs1)n2C(CC)CC)C(C)(C)C(=O)O` (centres unmarked) [Example 63, 3-{[1-(1-Ethyl-propyl)-2-thiophen-2-ylmethyl-1H-benzoimidazole-5-carbonyl]-amino}-2,2-dimethyl-hexanoic acid]: the concentration for a half-maximal effect (EC50) (read-out: EC50 (APJ agonism)) was found to be 343 nM. Take `CCC(CC)n1c(Cc2ccoc2)nc2cc(C(=O)N[C@@H](CC(C)C)C(=O)O)ccc21` [Example 118, (S)-2-{[1-(1-Ethyl-propyl)-2-furan-3-ylmethyl-1H-benzoimidazole-5-carbonyl]-amino}-4-methyl-pentanoic acid]: under “read-out: EC50 (APJ agonism)”, the EC50 was determined as 222 nM. Still for that read-out and setting: to `CCC(CC)n1c(Cc2cccs2)nc2cc(C(=O)NC(CC(C)C)c3cccnc3)ccc21` (centres unmarked) [Example 478, 1-(1-Ethyl-propyl)-2-thiophen-2-ylmethyl-1H-benzoimidazole-5-carboxylic acid (3-methyl-1-pyridin-3-yl-butyl)-amide] belongs 3150 nM; to `CCC(CC)n1c(Cc2cccs2)nc2cc(C(=O)N[C@@H](CC(C)C)C(=O)N[C@@H](C)COC)ccc21` [Example 370, 1-(1-Ethyl-propyl)-2-thiophen-2-ylmethyl-1H-benzoimidazole-5-carboxylic acid [(S)-1-((S)-2-methoxy-1-methyl-ethylcarbamoyl)-3-methyl-butyl]-amide], 2850 nM.
